Assay results from the supplement of paper PMC10307832.

Key:
Experiment in all cases: relative viability (nuclei count vs DMSO), 5 days (fraction); higher = more cells survive
Selisistat + Crizotinib = compound: C1CC(C2=C(C1)C3=C(N2)C=CC(=C3)Cl)C(=O)N [Selisistat] + C[C@@H](Oc1cc(-c2cnn(C3CCNCC3)c2)cnc1N)c1c(Cl)ccc(F)c1Cl [Crizotinib] (partner 1 µM)
Procedure, shortened: (§1)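 After 5 days of treatment, lung cancer cells in 1536-well plates were fixed and stained in a single step (final 0.05% Triton X-100, 1% formaldehyde, 1 ug/ml Hoechst) and their nuclei counted on 4× images. Treatment had been applied by pin tool the day after seeding as one drug alone or as a fixed anchor-drug dose with five library-drug doses (not always all listed) in √10 steps. Relative viability is the nuclei count of treated wells divided by that of vehicle wells, and values are medians of duplicate plates.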

Selisistat + Palbociclib = compound: C1CC(C2=C(C1)C3=C(N2)C=CC(=C3)Cl)C(=O)N [Selisistat] + CC(=O)c1c(C)c2cnc(Nc3ccc(N4CCNCC4)cn3)nc2n(C2CCCC2)c1=O [Palbociclib] (partner 0.5 µM)
Procedure, shortened: as §1

Serdemetan + Bortezomib = compound: c1ccc2c(CCNc3ccc(Nc4ccncc4)cc3)c[nH]c2c1 [Serdemetan] + CC(C)C[C@H](NC(=O)[C@H](Cc1ccccc1)NC(=O)c1cnccn1)B(O)O [Bortezomib] (partner 0.002 µM)
Procedure, shortened: as §1

Serdemetan + Vorinostat = compound: c1ccc2c(CCNc3ccc(Nc4ccncc4)cc3)c[nH]c2c1 [Serdemetan] + O=C(CCCCCCC(=O)Nc1ccccc1)NO [Vorinostat] (partner 1 µM)
Procedure, shortened: as §1

Cell Line	relative viability (Selisistat + Crizotinib; first compound 0.4 µM)	relative viability (Selisistat + Crizotinib; first compound 1.265 µM)	relative viability (Selisistat + Crizotinib; first compound 4 µM)	relative viability (Selisistat + Crizotinib; first compound 12.65 µM)	relative viability (Selisistat + Crizotinib; first compound 40 µM)	relative viability (Selisistat + Palbociclib; first compound 0.4 µM)	relative viability (Selisistat + Palbociclib; first compound 1.265 µM)	relative viability (Selisistat + Palbociclib; first compound 4 µM)	relative viability (Selisistat + Palbociclib; first compound 12.65 µM)	relative viability (Selisistat + Palbociclib; first compound 40 µM)	relative viability (Serdemetan + Bortezomib; first compound 0.04 µM)	relative viability (Serdemetan + Bortezomib; first compound 0.1265 µM)	relative viability (Serdemetan + Bortezomib; first compound 0.4 µM)	relative viability (Serdemetan + Bortezomib; first compound 1.265 µM)	relative viability (Serdemetan + Bortezomib; first compound 4 µM)	relative viability (Serdemetan + Vorinostat; first compound 0.04 µM)	relative viability (Serdemetan + Vorinostat; first compound 0.1265 µM)	relative viability (Serdemetan + Vorinostat; first compound 4 µM)	relative viability (Serdemetan + Vorinostat; first compound 0.4 µM)	relative viability (Serdemetan + Vorinostat; first compound 1.265 µM)
LOU-NH91	0.766	0.664	0.683	0.729	0.738	0.594	0.526	0.585	0.519	0.552	0.536	0.485	0.412	0.409	0.433	0.954	0.954	0.935	–	–
LU99A	0.568	0.438	0.662	0.493	0.677	0.459	0.367	0.44	0.445	0.399	1.19	1.08	1.12	0.4	0.255	0.535	0.459	0.249	0.379	0.211
LXF-289	0.853	0.803	0.786	0.709	0.805	0.628	0.639	0.55	0.557	0.619	0.954	1.01	0.944	0.951	0.894	0.754	0.77	0.646	0.718	0.656
NCI-H23	0.515	0.474	–	0.468	0.473	0.57	0.51	–	0.538	0.441	1.1	1.07	1.05	0.81	1.09	0.664	0.695	0.517	0.643	–
NCI-H322M	0.959	1.01	–	0.903	1.15	0.488	0.467	–	0.478	0.5	1.32	1.26	1.06	1.2	1.36	0.798	0.906	0.854	0.857	0.806
NCI-H441	0.754	0.652	0.915	0.673	0.806	0.24	0.186	0.136	0.217	0.239	0.459	0.784	0.906	0.569	0.643	0.795	0.71	0.436	0.765	0.479
NCI-H460	1.02	0.658	–	0.881	0.987	0.163	0.149	0.137	0.15	0.113	1.05	1.1	1.19	0.561	0.1	0.595	0.435	0.0723	0.296	0.0775
NCI-H520	0.743	0.714	0.873	0.742	0.796	0.224	0.208	0.198	0.274	0.236	0.752	0.561	0.615	0.476	0.572	0.785	0.688	0.548	0.683	0.438
NCI-H647	1.16	1	–	1.01	0.948	0.415	0.331	0.398	0.433	0.396	0.95	0.914	0.95	0.559	0.47	0.517	0.693	0.483	0.645	0.516
NCI-H650	0.707	–	0.786	0.596	0.664	0.379	0.319	0.443	0.387	0.339	0.673	0.679	0.872	0.674	0.848	0.352	0.478	0.46	0.51	0.405
NCI-H661	0.967	0.952	1.17	1.04	0.996	0.421	0.392	0.374	0.414	0.374	0.78	0.909	0.766	0.84	0.74	0.77	0.793	0.752	0.738	0.712
NCI-H727	0.823	0.816	–	–	0.729	0.738	0.613	0.442	0.601	0.637	0.923	1.01	1.03	0.557	0.431	1.3	1.12	0.849	1.12	1.28
NCI-H838	0.819	0.841	0.888	0.759	0.801	0.208	0.223	0.185	0.242	0.206	0.869	0.739	0.848	0.74	0.856	0.729	0.69	0.696	0.684	0.728
NCI-H1355	1.01	1.08	–	1.08	1.21	0.432	0.401	0.389	0.438	0.437	1.23	1.19	1.12	1.17	1.1	0.654	0.688	0.541	0.632	0.617
NCI-H1437	0.855	0.885	0.977	0.865	0.792	0.325	0.282	0.227	0.213	0.242	0.545	0.497	0.471	0.46	0.547	0.771	0.786	0.616	0.79	0.623
NCI-H1650	1.09	0.966	0.909	0.899	0.955	0.362	0.301	0.357	0.364	0.334	0.196	0.223	0.188	0.171	0.188	0.406	0.663	0.42	0.518	0.291
NCI-H1651	0.866	0.893	0.907	0.802	0.855	0.508	0.532	0.499	0.474	0.517	0.805	0.938	0.904	0.501	0.356	0.573	0.386	0.336	0.509	0.492

Cell Line	relative viability (Selisistat + Crizotinib; first compound 0.4 µM)	relative viability (Selisistat + Crizotinib; first compound 1.265 µM)	relative viability (Selisistat + Crizotinib; first compound 4 µM)	relative viability (Selisistat + Crizotinib; first compound 12.65 µM)	relative viability (Selisistat + Crizotinib; first compound 40 µM)	relative viability (Selisistat + Palbociclib; first compound 0.4 µM)	relative viability (Selisistat + Palbociclib; first compound 1.265 µM)	relative viability (Selisistat + Palbociclib; first compound 4 µM)	relative viability (Selisistat + Palbociclib; first compound 12.65 µM)	relative viability (Selisistat + Palbociclib; first compound 40 µM)	relative viability (Serdemetan + Bortezomib; first compound 0.04 µM)	relative viability (Serdemetan + Bortezomib; first compound 0.1265 µM)	relative viability (Serdemetan + Bortezomib; first compound 0.4 µM)	relative viability (Serdemetan + Bortezomib; first compound 1.265 µM)	relative viability (Serdemetan + Bortezomib; first compound 4 µM)	relative viability (Serdemetan + Vorinostat; first compound 0.04 µM)	relative viability (Serdemetan + Vorinostat; first compound 0.1265 µM)	relative viability (Serdemetan + Vorinostat; first compound 4 µM)	relative viability (Serdemetan + Vorinostat; first compound 0.4 µM)	relative viability (Serdemetan + Vorinostat; first compound 1.265 µM)
NCI-H1666	1.12	0.871	0.788	0.835	0.618	0.658	0.613	0.642	0.659	0.611	0.97	0.761	0.838	0.868	0.534	0.896	0.935	0.713	0.907	–
NCI-H1734	0.696	0.606	0.714	0.761	0.648	0.366	0.37	0.353	0.379	0.369	0.908	–	0.677	0.158	0.18	0.65	0.366	0.128	0.331	0.149
NCI-H1755	0.917	0.927	0.952	0.82	0.946	0.457	0.465	0.428	0.485	0.439	0.877	0.949	0.896	0.58	0.563	0.648	0.811	0.459	0.741	0.54
NCI-H1915	0.917	0.87	0.883	0.885	0.908	0.612	0.515	0.466	0.554	0.587	0.957	0.974	1.02	0.723	0.86	0.538	0.535	0.509	0.513	0.508
NCI-H1975	0.904	0.863	0.916	0.854	0.807	0.585	0.585	0.38	0.478	0.523	0.346	0.378	0.377	0.313	0.314	0.718	0.725	0.687	0.697	0.743
NCI-H1993	0.803	0.92	–	0.987	0.854	0.703	0.67	–	0.623	0.676	1.08	1.06	1.05	–	1.11	0.935	0.609	0.782	0.669	0.767
NCI-H2009	1.09	1.02	1	0.989	0.906	0.202	0.184	0.136	0.202	0.191	0.95	0.986	0.929	0.787	0.797	0.583	0.695	0.558	0.805	0.638
NCI-H2023	0.69	0.651	0.636	0.68	0.576	0.34	0.354	0.401	0.378	0.353	0.74	0.985	0.9	0.485	0.28	0.48	0.708	0.258	0.53	0.343
NCI-H2085	0.893	0.702	0.886	0.864	0.951	0.486	0.476	0.433	0.522	0.496	1.11	1.13	1.06	0.723	0.674	0.761	0.776	0.524	0.695	0.484
NCI-H2087	0.847	0.77	1.13	0.763	0.784	0.224	0.278	–	0.261	0.287	0.738	0.812	0.759	0.375	0.572	0.864	0.316	0.213	0.527	0.226
NCI-H2126	1.1	0.976	0.992	1.01	1.12	0.377	0.369	0.336	0.362	0.37	1.12	1.12	1.11	0.934	1.12	0.806	0.913	0.659	0.628	0.669
NCI-H2228	0.529	0.49	0.362	0.442	0.379	0.797	0.726	0.802	0.795	0.801	1.34	1.02	0.974	0.404	0.301	0.588	0.542	0.219	0.573	0.244
NCI-H2347	0.814	0.946	0.566	0.813	0.84	0.38	0.438	–	0.409	0.447	1.05	0.752	1.2	1.01	0.744	0.648	0.53	0.414	0.703	0.334
NCI-H2405	0.825	0.807	0.787	0.833	0.832	0.534	0.536	–	0.578	0.502	0.976	0.915	0.905	0.738	0.949	0.968	0.973	0.846	0.91	0.788
NCI-H3122	0.315	0.235	0.218	0.296	0.266	0.223	0.191	–	0.191	0.178	1.03	0.955	1.06	–	1.08	1.05	0.969	0.877	0.928	0.587
PC-3 [JPC-3]	1.02	1.01	0.936	1.01	1.07	0.608	0.636	–	0.571	0.529	0.868	0.861	–	0.755	0.812	0.877	0.807	0.835	0.671	0.626
PC-14	0.834	0.877	0.991	0.919	0.936	0.513	0.498	0.528	0.53	0.489	0.924	0.797	0.791	0.606	0.497	0.718	0.811	0.266	–	0.645
